{"source": "patent US20230059869A1", "about": "“ORAL PHARMACEUTICAL SOLUTION OF CLOPIDOGREL” (LIQMEDS WORLDWIDE LIMITED, priority 2021, published 2023)", "origin": "cited, not measured here", "key": {"[1]": {"conditions": "see Reist; Badorc"}, "[2]": {"conditions": "at high doses; see Reist; Badorc"}}}
{"smiles": "COC(=O)[C@@H](c1ccccc1Cl)N1CCc2sccc2C1", "note": "[Impurity C, (R)-Methyl (2-chlorophenyl)(6,7-dihydro-4H-thieno[3,2-c]pyridin-5-yl)acetate]", "values": [{"measurement": "antithrombotic activity", "setting": "[1]", "result": "devoid of antithrombotic activity"}, {"measurement": "convulsions", "setting": "[2]", "result": "can evoke convulsions at high doses"}]}
